{"source": "patent US20230312752A1", "about": "(Brown University, priority 2021, published 2023)", "molecules": {"B1": {"name": "FRG: murine monoclonal anti-CHI3L1 antibody raised against amino acid 223-234 of human CHI3L1; heavy chain SEQ ID NO: 13, light chain SEQ ID NO: 14 (antibody, V domains shown)", "VH": "QIQLVQSGPELKKPGETVKISCKASGYTFTNYGMNWVKQAPGKGLKWMGWINTYTGEPTYADDFKGRFAFSLETSASTAYLQINNLRNEDMSTYFCARLGYGKFYVMDYWGQGTSVTVSS", "VL": "DVVMTQTPLSLPVSLGDQASISCRSSQSLVHSNGNTYLHWYLQKPGQSPKLLIYKVSNRFSGVPDRFSGSGSGTDFTLKISRVEAEDLGVYFCSQSTHVTWTFGGGTKLEIK"}}, "key": {"CDK8": {"biological_target": "CDK8 (Homo sapiens, UniProt P49336)", "sequence (P24863 whole entry, canonical isoform)": "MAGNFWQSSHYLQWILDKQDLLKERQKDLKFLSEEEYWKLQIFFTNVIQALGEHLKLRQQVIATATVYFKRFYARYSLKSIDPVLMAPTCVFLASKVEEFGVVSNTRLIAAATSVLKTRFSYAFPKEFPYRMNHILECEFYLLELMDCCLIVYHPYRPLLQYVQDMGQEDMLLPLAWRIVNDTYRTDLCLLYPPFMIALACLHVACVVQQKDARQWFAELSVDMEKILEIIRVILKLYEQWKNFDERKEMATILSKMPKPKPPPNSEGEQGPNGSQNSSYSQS", "sequence (P49336 whole entry, canonical isoform)": "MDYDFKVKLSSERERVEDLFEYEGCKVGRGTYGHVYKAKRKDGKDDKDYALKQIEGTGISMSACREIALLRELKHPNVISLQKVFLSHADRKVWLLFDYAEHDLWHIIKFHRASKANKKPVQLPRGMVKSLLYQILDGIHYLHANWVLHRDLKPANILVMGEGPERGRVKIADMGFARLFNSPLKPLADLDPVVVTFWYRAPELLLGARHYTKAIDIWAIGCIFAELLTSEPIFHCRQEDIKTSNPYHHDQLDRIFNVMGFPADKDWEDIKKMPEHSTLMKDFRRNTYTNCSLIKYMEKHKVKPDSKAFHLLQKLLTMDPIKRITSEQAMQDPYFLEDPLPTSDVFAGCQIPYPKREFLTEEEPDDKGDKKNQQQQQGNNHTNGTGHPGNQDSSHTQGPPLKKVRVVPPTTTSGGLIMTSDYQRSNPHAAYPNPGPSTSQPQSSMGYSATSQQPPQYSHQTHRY", "design": "key: + is used to indicate the potency of the inhibitor; ++++ > +++ > ++ > +; + is used to indicate the potency of the inhibitor; ++++ > +++ > ++ > +; + is used to indicate the potency of the inhibitor; ++++ > +++ > ++ > +; + is used to indicate the potency of the inhibitor; ++++ > +++ > ++ > +; ◯ refers to compounds with inhibitory effects on the related isoform, but without specific value", "conditions": "cited from earlier work"}, "CDK7": {"biological_target": "CDK7 (Homo sapiens, UniProt P50613)", "sequence (P50613 whole entry)": "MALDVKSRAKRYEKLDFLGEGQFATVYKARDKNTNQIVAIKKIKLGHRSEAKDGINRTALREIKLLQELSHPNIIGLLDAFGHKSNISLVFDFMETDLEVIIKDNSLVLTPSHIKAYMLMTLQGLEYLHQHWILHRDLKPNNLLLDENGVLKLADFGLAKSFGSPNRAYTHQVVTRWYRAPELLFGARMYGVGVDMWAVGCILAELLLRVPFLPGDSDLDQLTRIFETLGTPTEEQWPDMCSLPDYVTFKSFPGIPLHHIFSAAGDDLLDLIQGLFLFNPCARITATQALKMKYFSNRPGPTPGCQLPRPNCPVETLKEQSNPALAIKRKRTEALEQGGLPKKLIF", "sequence (P51946 whole entry, further chain)": "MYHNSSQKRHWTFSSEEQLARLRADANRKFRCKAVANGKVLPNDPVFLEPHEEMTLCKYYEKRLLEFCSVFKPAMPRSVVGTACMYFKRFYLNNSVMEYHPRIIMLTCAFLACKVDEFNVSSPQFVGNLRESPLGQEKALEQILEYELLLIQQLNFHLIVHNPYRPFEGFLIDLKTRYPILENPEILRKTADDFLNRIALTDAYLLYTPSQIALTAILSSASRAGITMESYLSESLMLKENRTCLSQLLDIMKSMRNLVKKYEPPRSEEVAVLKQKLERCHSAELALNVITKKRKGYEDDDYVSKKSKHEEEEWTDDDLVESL", "sequence (P51948 whole entry, further chain)": "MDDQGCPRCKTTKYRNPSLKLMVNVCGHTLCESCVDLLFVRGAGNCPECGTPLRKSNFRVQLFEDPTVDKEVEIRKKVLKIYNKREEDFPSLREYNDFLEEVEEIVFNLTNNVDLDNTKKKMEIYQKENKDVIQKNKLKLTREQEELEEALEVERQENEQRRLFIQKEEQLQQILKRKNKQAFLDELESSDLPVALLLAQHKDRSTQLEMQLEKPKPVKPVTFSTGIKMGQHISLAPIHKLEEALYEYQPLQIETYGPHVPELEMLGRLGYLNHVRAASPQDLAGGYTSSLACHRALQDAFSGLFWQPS", "conditions": "cited from earlier work"}, "CDK9": {"biological_target": "CDK9 (Homo sapiens, UniProt P50750)", "design": "key: + is used to indicate the potency of the inhibitor; ++++ > +++ > ++ > +; + is used to indicate the potency of the inhibitor; ++++ > +++ > ++ > +; + is used to indicate the potency of the inhibitor; ++++ > +++ > ++ > +; + is used to indicate the potency of the inhibitor; ++++ > +++ > ++ > +; ◯ refers to compounds with inhibitory effects on the related isoform, but without specific value", "conditions": "cited from earlier work"}, "CDK3": {"biological_target": "CDK3 (Homo sapiens, UniProt Q00526)", "sequence (P24864 whole entry)": "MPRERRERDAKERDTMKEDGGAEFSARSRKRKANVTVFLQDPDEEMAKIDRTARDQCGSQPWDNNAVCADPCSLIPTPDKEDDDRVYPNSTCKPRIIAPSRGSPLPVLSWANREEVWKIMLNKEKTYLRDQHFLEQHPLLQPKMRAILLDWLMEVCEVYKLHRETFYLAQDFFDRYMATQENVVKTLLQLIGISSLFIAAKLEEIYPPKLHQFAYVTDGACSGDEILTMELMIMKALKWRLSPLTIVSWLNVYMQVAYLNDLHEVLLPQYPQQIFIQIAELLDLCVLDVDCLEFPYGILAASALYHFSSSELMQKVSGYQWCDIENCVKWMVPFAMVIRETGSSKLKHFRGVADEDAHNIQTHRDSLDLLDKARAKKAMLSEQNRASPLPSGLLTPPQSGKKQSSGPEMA", "sequence (Q00526 whole entry)": "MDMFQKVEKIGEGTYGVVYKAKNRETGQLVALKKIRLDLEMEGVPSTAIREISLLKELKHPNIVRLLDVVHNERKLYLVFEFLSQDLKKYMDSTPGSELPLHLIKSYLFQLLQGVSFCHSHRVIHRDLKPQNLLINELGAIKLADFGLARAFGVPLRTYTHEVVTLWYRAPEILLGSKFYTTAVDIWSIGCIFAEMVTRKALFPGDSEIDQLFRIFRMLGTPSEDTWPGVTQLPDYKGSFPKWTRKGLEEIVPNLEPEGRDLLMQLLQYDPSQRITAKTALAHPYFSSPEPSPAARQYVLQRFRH", "conditions": "cited from earlier work"}, "CDK6": {"biological_target": "CDK6 (Homo sapiens, UniProt Q00534)", "sequence (Q00534 whole entry)": "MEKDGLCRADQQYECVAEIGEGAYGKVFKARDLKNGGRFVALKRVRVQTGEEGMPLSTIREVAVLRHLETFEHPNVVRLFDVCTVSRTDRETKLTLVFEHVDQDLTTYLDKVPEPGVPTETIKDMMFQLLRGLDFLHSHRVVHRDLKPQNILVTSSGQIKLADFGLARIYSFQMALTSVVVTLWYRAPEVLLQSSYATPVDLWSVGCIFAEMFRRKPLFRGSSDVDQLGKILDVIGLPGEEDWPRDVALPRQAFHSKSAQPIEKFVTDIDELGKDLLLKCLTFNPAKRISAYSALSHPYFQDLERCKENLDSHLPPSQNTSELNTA", "sequence (P30281 whole entry, further chain)": "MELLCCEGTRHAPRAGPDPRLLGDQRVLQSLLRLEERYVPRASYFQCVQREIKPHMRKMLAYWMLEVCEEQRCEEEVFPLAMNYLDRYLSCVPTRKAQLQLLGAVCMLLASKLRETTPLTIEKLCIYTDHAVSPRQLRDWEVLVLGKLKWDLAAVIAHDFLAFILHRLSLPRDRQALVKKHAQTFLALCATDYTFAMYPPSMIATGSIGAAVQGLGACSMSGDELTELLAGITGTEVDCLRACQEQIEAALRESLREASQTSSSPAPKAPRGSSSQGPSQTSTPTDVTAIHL", "design": "key to the marks not given beside the values", "conditions": "cited from earlier work"}, "CDK4": {"biological_target": "CDK4 (Homo sapiens, UniProt P11802)", "sequence (P11802 whole entry, species assumed)": "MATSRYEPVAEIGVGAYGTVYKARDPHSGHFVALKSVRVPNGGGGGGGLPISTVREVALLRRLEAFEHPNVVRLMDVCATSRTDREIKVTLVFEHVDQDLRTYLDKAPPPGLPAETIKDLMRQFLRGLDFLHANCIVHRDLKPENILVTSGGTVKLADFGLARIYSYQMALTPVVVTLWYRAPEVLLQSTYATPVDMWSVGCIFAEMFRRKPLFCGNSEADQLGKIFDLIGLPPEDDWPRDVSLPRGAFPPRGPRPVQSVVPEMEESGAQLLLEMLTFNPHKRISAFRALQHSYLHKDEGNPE", "sequence (P24385 whole entry partner, species assumed)": "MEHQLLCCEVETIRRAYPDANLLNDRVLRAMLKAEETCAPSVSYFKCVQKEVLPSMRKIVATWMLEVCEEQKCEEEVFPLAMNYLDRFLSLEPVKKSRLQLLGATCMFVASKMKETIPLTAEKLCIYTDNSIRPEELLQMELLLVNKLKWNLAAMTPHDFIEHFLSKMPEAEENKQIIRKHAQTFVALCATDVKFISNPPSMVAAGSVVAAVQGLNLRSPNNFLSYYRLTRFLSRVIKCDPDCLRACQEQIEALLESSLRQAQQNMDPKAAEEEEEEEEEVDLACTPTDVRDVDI", "conditions": "cited from earlier work"}, "CDK2": {"biological_target": "CDK2 (Homo sapiens, UniProt P24941)", "conditions": "cited from earlier work"}, "CDK1": {"biological_target": "CDK1 (Homo sapiens, UniProt P06493)", "sequence (P06493 whole entry, species assumed)": "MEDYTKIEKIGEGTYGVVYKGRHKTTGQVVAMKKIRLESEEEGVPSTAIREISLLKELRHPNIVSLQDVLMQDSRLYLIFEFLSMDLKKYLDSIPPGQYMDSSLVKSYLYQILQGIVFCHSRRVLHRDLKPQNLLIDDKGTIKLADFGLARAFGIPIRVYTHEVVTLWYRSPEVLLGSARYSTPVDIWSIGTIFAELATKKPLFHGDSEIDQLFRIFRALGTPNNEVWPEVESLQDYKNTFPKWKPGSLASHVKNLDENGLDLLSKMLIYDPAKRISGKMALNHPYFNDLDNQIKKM", "sequence (P14635 whole entry partner, species assumed)": "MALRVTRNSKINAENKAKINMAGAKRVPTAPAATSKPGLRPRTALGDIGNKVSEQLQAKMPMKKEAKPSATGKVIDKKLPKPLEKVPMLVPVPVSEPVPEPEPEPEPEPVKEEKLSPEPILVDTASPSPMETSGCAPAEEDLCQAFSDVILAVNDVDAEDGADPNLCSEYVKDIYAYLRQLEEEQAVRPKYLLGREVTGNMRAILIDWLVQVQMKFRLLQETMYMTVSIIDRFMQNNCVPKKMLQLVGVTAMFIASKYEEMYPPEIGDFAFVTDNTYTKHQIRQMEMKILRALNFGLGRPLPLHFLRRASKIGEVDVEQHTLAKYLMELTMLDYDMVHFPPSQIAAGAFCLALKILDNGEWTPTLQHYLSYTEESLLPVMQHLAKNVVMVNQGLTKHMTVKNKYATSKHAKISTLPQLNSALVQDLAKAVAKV", "conditions": "cited from earlier work"}, "[1]": {"system": "influenza and other viral infections", "conditions": "cited from earlier work"}, "Chitinase 1 (CHIT1)": {"biological_target": "Chitinase 1 (CHIT1) (Homo sapiens, UniProt Q13231)", "sequence (Q13231 22-466)": "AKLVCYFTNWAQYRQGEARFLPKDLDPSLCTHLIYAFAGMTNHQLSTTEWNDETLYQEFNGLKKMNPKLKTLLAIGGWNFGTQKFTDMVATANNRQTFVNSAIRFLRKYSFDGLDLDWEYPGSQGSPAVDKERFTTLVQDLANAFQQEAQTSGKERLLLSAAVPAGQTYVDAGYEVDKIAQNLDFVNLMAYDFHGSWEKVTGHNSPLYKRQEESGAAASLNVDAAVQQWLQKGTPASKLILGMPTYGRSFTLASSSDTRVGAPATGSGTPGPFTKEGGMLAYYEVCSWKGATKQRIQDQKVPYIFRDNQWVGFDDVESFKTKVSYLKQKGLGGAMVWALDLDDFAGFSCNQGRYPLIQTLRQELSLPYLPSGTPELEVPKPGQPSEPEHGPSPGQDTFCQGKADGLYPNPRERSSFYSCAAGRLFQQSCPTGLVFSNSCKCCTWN", "conditions": "cited from earlier work"}, "[2]": {"system": "pseudovirus with the G614 S protein", "assay_type": "cell-based, SARS-CoV-2"}, "[3]": {"system": "pseudovirus with the ancestral G614 S protein", "assay_type": "cell-based, SARS-CoV-2"}, "TMPRSS2, CTSL and FURIN": {"system": "TMPRSS2, CTSL and FURIN", "assay_type": "cell-based, human"}, "ERK and AKT": {"system": "ERK and AKT", "assay_type": "cell-based, human"}, "ACE2 [4]": {"system": "ACE2", "assay_type": "cell-based, human"}, "human and mouse CHI3L1": {"biological_target": "human and mouse CHI3L1", "test": "Ligand binding affinity of FRG by ELISA", "conditions": "both human and mouse CHI3L1", "method": "The murine monoclonal anti-CHI3L1 antibody (FRG) was generated using peptide antigen (amino acid 223-234 of human CHI3L1) as immunogen through Abmart Inc (Berkeley Heights, NJ). […] HEK-293T cells were transfected with the FRG construct using Lipofectamine™ 3000 (Invitrogen, #L3000015). Supernatant was collected for 7 days, and the antibody was purified using a protein A column (ThermoFisher scientific, #89960). Ligand binding affinity and sensitivity were assessed using ELISA techniques."}, "ACE2 [5]": {"system": "ACE2", "test": "Immunocytochemical evaluation of ACE2 in Calu-3 cells", "assay_type": "cell-based, human", "conditions": "at baseline and or after the administration of rCHI3L1; ICC, FIG. 18"}, "[6]": {"system": "pseudovirus containing the S protein (D614 and G614 variants)", "assay_type": "cell-based", "conditions": "Calu-3 cells, rCHI3L1 250 ng/mL 24 hours, GFP by flow cytometry"}, "[7]": {"system": "pseudoviruses with delta S proteins", "assay_type": "cell-based, SARS-CoV-2"}, "[8]": {"conditions": "Calu-3 cells, 24 hours, FRG or KSM 250 ng/mL, RT-PCR"}}, "note": "“Also recorded” adds a separate entry of the source. Counter-ions that a name gives are not always drawn. Like-named read-outs stand apart in the source and are kept apart here."}
{"molecule": "LY2857785", "values": [{"measurement": "Inhibitory potency CDK8", "setting": "CDK8", "result": "+++"}, {"measurement": "Inhibitory potency CDK7", "setting": "CDK7", "result": "+"}, {"measurement": "Inhibitory potency CDK9", "setting": "CDK9", "result": "+++"}]}
{"molecule": "CN1CC[C@H](c2c(O)cc(O)c3c(=O)cc(-c4ccccc4Cl)oc23)[C@H](O)C1", "note": "[Flavopiridol HCl, Flavopiridol Hydrochloride]", "values": [{"measurement": "Inhibitory potency CDK3", "setting": "CDK3", "result": "+"}, {"measurement": "Inhibitory potency CDK7", "setting": "CDK7", "result": "+"}, {"measurement": "Inhibitory potency CDK6", "setting": "CDK6", "result": "+++"}, {"measurement": "Inhibitory potency CDK4", "setting": "CDK4", "result": "+++"}, {"measurement": "Inhibitory potency CDK2", "setting": "CDK2", "result": "+++"}, {"measurement": "Inhibitory potency CDK1", "setting": "CDK1", "result": "+++"}]}
{"molecule": "C[C@H]1O[C@H](O[C@H]2[C@H](O)[C@@H](O)[C@@H](O)[C@H](O)[C@@H]2O)[C@@H](N)C[C@@H]1NC(=N)C(=O)O", "note": "[Kasugamycin, 2-amino-2-[(2R,3S,5S,6R)-5-amino-2-methyl-6-[(2R,3S,5S,6S)-2,3,4,5,6-pentahydroxycyclohexyl]oxyoxan-3-yl]iminoacetic acid]", "values": [{"measurement": "influenza and other viral infections", "setting": "[1]", "result": "inhibit"}, {"measurement": "anti-Chitinase 1 (CHIT1) activities", "setting": "Chitinase 1 (CHIT1)", "result": "strong"}, {"measurement": "pseudovirus uptake when exogenous CHI3L1 was not administered", "setting": "[2]", "result": "diminished"}, {"measurement": "rCHI3L1-augmented pseudovirus uptake", "setting": "[3]", "result": "abrogated"}, {"measurement": "basal and rhCHI3L1-stimulated expression of TMPRSS2, CTSL and FURIN", "setting": "TMPRSS2, CTSL and FURIN", "result": "potently decreased"}, {"measurement": "CHI3L1 stimulated MAPK and AKT activation", "setting": "ERK and AKT", "result": "abrogated"}, {"measurement": "ability of rhCHI3L1 to stimulate ACE2 mRNA accumulation", "setting": "ACE2 [4]", "result": "potently inhibited; also recorded: potently ameliorated"}, {"measurement": "levels of basal ACE2 expression", "setting": "ACE2 [4]", "result": "diminished"}]}
{"molecule": "B1", "values": [{"measurement": "Kd", "setting": "human and mouse CHI3L1", "result": "~1.1", "unit": "nM"}, {"measurement": "expression of ACE2", "setting": "ACE2 [5]", "result": "abrogated"}, {"measurement": "CHI3L1 effect on cellular integration of S proteins", "setting": "[6]", "result": "abrogated"}, {"measurement": "delta pseudovirus infection", "setting": "[7]", "result": "abrogated"}, {"measurement": "pseudovirus uptake when exogenous CHI3L1 was not administered", "setting": "[2]", "result": "diminished"}, {"measurement": "pseudovirus uptake when exogenous rCHI3L1 was not administered", "setting": "[3]", "result": "diminished"}, {"measurement": "rCHI3L1-augmented pseudovirus uptake", "setting": "[3]", "result": "abrogated"}, {"measurement": "basal and rhCHI3L1-stimulated expression of TMPRSS2, CTSL and FURIN", "setting": "TMPRSS2, CTSL and FURIN; [8]", "result": "potently decreased"}, {"measurement": "levels of basal ACE2 expression", "setting": "ACE2 [4]; [8]", "result": "modestly diminished"}, {"measurement": "ability of rhCHI3L1 to stimulate ACE2 mRNA accumulation", "setting": "ACE2 [4]; Calu-3 cells, rhCHI3L1 24 hours, FRG or KSM 250 ng/mL, RT-PCR", "result": "potently inhibited; also recorded: potently ameliorated"}]}
